# Laboratory results taken from patent US12398117B2, “Heteroarylamidopyridinol derivative and pharmaceutical composition comprising same as active ingredient for prevention or treatment of autoimmune disease” (INNOVO THERAPEUTICS INC., priority 2019, dated 2025).
# Key:
# [1] = test system: TNBS-induced inflammatory bowel disease rat model; test: Oral efficacy in TNBS-induced inflammatory bowel disease rat model; format: in vivo, Sprague Dawley rats
# Protocol: (§1) Sprague Dawley rats aged 7-8 weeks were purchased from OrientBio (Korea), stabilized with general solid feed for 3 days, and then used in this experiment. Feed and water were freely supplied during the experiment period, and the temperature of the breeding room was maintained at 25±1° C. and the relative humidity at 50±10%. Lighting management was controlled in a 12-hour light-dark cycle by an automatic lighting controller.
# After anesthetizing rats that had been fasted for 24 hours with diethyl ether, 0.8 mL of 5% TNBS diluted with 50v/v % ethanol was slowly injected into the lumen of the colon using a 1 mL syringe connected to a polyethylene catheter, and then, the rats were left standing for 60 seconds in an inverted position in order to prevent 5% TNBS from leaking into the anus. For the control group, only vehicle [50v/v % ethanol] was injected in the same manner as in the other groups (Thapa et al., 2008).
# In order to investigate the effect of the drug, the drug was administered at a constant time every day for 5 days from the day after the TNBS treatment.
# Changes in body weight of each rat were observed from the fasting stage to the TNBS administration and drug administration process using a digital mass meter.
# The colon of the rat was extracted, and the tissue 5-6 cm away from the anus was cut into a length of 1 cm, and the weight of the tissue was measured.
# The weighed rat tissues were fixed with 4% paraformaldehyde solution, and then transferred to 30% sucrose solution. When the tissues subside, they were taken out and cut into […] thick using a cryomicrotome (Microm HM 450, Thermo Fisher Scientific, Germany) and stored in a cryopreservation solution. After washing the tissue section with KPBS, the tissue section was attached to a slide glass, dried, and then stained with hematoxylin & Eosin and observed under a microscope.
# [2] = test system: DSS-induced acute enteritis mouse model; test: Oral efficacy in DSS-induced acute enteritis mouse model; format: in vivo, C57BL/6 mice; conditions: for Body weight recovery rate (%) / Intestinal weight recovery rate (%): acute enteritis (DSS), mouse
# Protocol: as §1, with “C57BL/6 mice” for “Sprague Dawley rats”, “7” for “3”
# Enteritis was induced in mice by allowing them to freely ingest drinking water containing 2% DSS salt (M.W. 36,000˜50,000, MP Biomedicals, LLC, OH, USA). For the chronic enteritis model, DSS was administered using a schedule of DSS administration for the first 7 days, administration of normal drinking water for 14 days, repeated administration of DSS for 7 days from the 21st day, and administration of normal drinking water for 7 days. The drug was administered once a day, 6 days a week from the first day of DSS treatment (FIG. 2A). […] In order to measure the dose-dependent therapeutic effect of the drug in the acute enteritis model, DSS was administered for 5 days to induce enteritis, and then the drug was administered for 14 days to measure the degree of recovery and treatment of enteritis (FIG. 3A). The drug was administered orally once daily for […] at a fixed time.
# Changes in body weight of each mouse were observed during the DSS and drug administration using a digital mass meter.
# The colon of the mouse was extracted, and the length and weight from the anus to the cecum were measured.
# The degree of neutrophil infiltration in the tissue was measured by the amount of MPO, a neutrophil marker enzyme. The colon tissue with a size of 1 cm was washed with cold PBS and weighed, to which a lysis buffer (pH7.4, 200 mM NaCl, 5 mM EDTA, 10 mM tris, 10% glycerin, 1 mM PMSF, 1 μg/mL leupeptin and 28 μg/mL aprotinin) was added (500 μL of per 10 mg of tissue weight), and then homogenized using Bead Blaster® D2400 homogenizer (Benchmark Scientific, NJ, USA). […] (HK210, Hycult Biotechnology, Netherlands). The supernatant was added to a 96 well plate (100 μL/well) coated with an anti-mouse MPO antibody, and incubated for 1 hour at room temperature, followed by washing 3 times with a washing buffer. A reconstituted tracer was added to the plate (100 μL/well), which was reacted at room temperature for 1 hour, washed 3 times, and then 100 μL of streptavidin-peroxidase conjugate was added to each well of the plate. The plate was reacted at room temperature for 1 hour, washed, and 100 μl of TMB substrate solution was added to each well of the plate, followed by reaction for 30 minutes. The reaction was terminated by adding 100 μL of a stop solution to each well of the plate, and absorbance was measured at 450 nm. MPO activity means the amount of 1 μM […] at 25° C. for 1 minute. This was calculated as the amount of MPO contained in 1 mL of the colon tissue homogenate.
# Tissue staining was performed in the same manner as in the case of hematoxylin/eosin staining of the rat colon tissue, and scoring indexes of mucosal damage and recovery were applied in the same way.
# [3] = 0.3 mg/kg, dose-dependence test (Table 7)
# [4] = 1 mg/kg, dose-dependence test (Table 7)
# [5] = 3 mg/kg, dose-dependence test (Table 7)
# [6] = 10 mg/kg, dose-dependence test (Table 7)
# [7] = oral 1 mg/kg, 5 days, fixed-dose test (Table 6)
smiles,measurement,setting,value
"Cc1ccc2[nH]c(C(=O)Nc3nc(C)c(O)c(C)c3C)cc2c1 [Compound X-09, N-(5-hydroxy-3,4,6-trimethylpyridin-2-yl)-5-methyl-1H-indole-2-carboxamide]",Body weight recovery rate (%),[1]; [3],17.2%
same,Intestinal weight recovery rate (%),[1]; [3],47.0%
same,Body weight recovery rate (%),[1]; [4],69.3%
same,Intestinal weight recovery rate (%),[1]; [4],85.2%
same,Body weight recovery rate (%),[1]; [5],74.6%
same,Intestinal weight recovery rate (%),[1]; [5],91.7%
same,Body weight recovery rate (%),[1]; [6],80.8%
same,Intestinal weight recovery rate (%),[1]; [6],98.9%
same,Mucosal damage recovery of rat colon (hematoxylin-eosin score),"[1]; X-09 dose range, FIG. 1",dose-dependent mucosal damage recovery activity
same,"Morphological observation of colon (visual symptoms, adhesions, congestion)","[1]; after 5 days of drug administration, sulfasalazine 300 mg/kg, X-09 0.3-10 mg/kg",dose-dependent therapeutic activity for enteritis
same,Body weight recovery rate (%),[1]; [7],72.7%
same,Intestinal weight recovery rate (%),[1]; [7],94.0%
same,"Morphological observation of colon, therapeutic effect versus tofacitinib","[2]; DSS acute mouse, 10 mg/kg, FIG. 3C",significantly superior to that of the control group treated with 30 mg/kg of tofacitinib
same,Morphological observation of colon,"[2]; DSS acute mouse, X-09 dose range, FIG. 3C",dose-dependent therapeutic efficacy
same,level of MPO in colon tissue,"[2]; DSS acute mouse, X-09 dose range, FIG. 3E",decreased by compound X-09 dose-dependently
same,Mucosal damage recovery of mouse colon (hematoxylin-eosin score),"[2]; DSS mouse, X-09 dose range, FIG. 4",dose-dependent mucosal damage recovery effect
same,Body weight recovery rate (%),[2]; 0.3 mg/kg,56.5%
same,Intestinal weight recovery rate (%),[2]; 0.3 mg/kg,48.4%
same,Body weight recovery rate (%),[2]; 1 mg/kg,72.0%
same,Intestinal weight recovery rate (%),[2]; 1 mg/kg,76.7%
same,Body weight recovery rate (%),[2]; 3 mg/kg,80.7%
same,Intestinal weight recovery rate (%),[2]; 3 mg/kg,89.0%
same,Body weight recovery rate (%),[2]; 10 mg/kg,88.1%
same,Intestinal weight recovery rate (%),[2]; 10 mg/kg,96.4%
